Data: patent US12692232B2, “Indole carboxamide compound, preparation therefor and use thereof” (NANJING RUISHUNING MEDICAL TECHNOLOGY CO., LTD., priority 2021, dated 2026)

Assays:
[1] = test system: lipopolysaccharide (LPS)-induced mouse model of sepsis; experiment: LPS-induced mouse model of sepsis, cardiopulmonary injury; format: in vivo; settings: 4 hours after LPS 40 mg/kg; for LVFS: model 15.2 ± 2.8; for LVEF: model 34.3 ± 2.9; for lung coefficient: LPS model 7.24%±0.21%
Experimental: A lipopolysaccharide (LPS)-induced mouse model of sepsis was used to determine the preventive and therapeutic effect of the compounds of the present invention (as exemplified by compound 1-1 obtained in Example 1) on cardiopulmonary injury caused by sepsis. The method was as follows:
Grouping of animals: 50 male C57BL/6J mice aged 6-8 weeks. The mice were randomly divided into 5 groups of 10 mice each, namely, i) a solvent control group: each animal was administered 0.9% saline; ii) a sepsis model group (LPS group): each animal was injected intraperitoneally with LPS at a dose of 40 mg/kg; iii) a treatment group of medium-dose compound 1-1 of Example (LPS+25 mg/kg of compound 1-1 obtained in Example 1): each animal was administered compound 1-1 by gavage at a dose of 25 mg/kg, followed by intraperitoneal injection of LPS at a dose of 40 mg/kg 30 minutes later; iv) a treatment group of high-dose compound 1-1 of Example 1 (LPS+50 mg/kg of compound 1-1 group obtained in Example 1): each animal was administered compound 1-1 by gavage at a dose of 50 mg/kg, followed by intraperitoneal injection of LPS at a dose of 40 mg/kg 30 minutes later; v) a treatment group of medium-dose indole analogue 3-[(1-methyl-1H-indole-2-carbonyl)amino]propionic acid disclosed in CN2019107285315 (LPS+25 mg/kg of indole analogue 3-[(1-methyl-1H-indole-2-carbonyl)amino]propionic acid disclosed in CN2019107285315): each animal was administered the indole analogue by gavage at a dose of 25 mg/kg, followed by intraperitoneal injection of LPS at a dose of 40 mg/kg 30 minutes later. 4 hours after LPS stimulation, follow-up examinations were performed in each group.
Assessment of cardiac function in mice: 4 animals from each group were used for this assay. Isoflurane was used to maintain proper anesthesia and spontaneous breathing in the mice. The mice were placed in the supine position on a constant temperature pad at 37° C., and the extremities of the mice were connected to four electrodes with conductive paste and fixed on the ultrasonic operating table. The probe was coated with ultrasound coupling agent, and placed in the lower middle part of the left sternum of the mice, and the short-axis M-mode echocardiographic images of the left ventricle adjacent to the sternum were acquired in real time. The dynamic images of 10 consecutive cardiac cycles were acquired using M-mode echocardiography, and the images were stored and analyzed offline. Left ventricular ejection fraction (LVEF) and left ventricular fraction shortening (LVFS) were calculated from left ventricular end diastolic diameter (LVEDD) and left ventricular end systolic diameter (LVESD), respectively, using the formulae: LVEF=(LVEDD^3−LVESD^3)/LVEDD^3×100% and LVFS=(LVEDD−LVESD)/LVEDD×100%.
Determination of lung coefficient: after weighting, the mice were anesthetized with pentobarbital sodium injection, and the whole lung was removed from the thorax, and the tissue around the lung was removed. Surface moisture and blood stains were wiped dry with filter paper, and the wet weight of the lung was weighed. Lung coefficient=lung wet weight […]/mouse body weight (g)×100%.
Histopathological observations: after the mice were anaesthetized with pentobarbital sodium injection, the lungs and ventricles were removed by thoracotomy and fixed in 10% neutral formaldehyde (pH=7.4) for 2 days. Routine paraffin embedding, serial sectioning, H&E staining, neutral balsam sealing and microscopic observation were performed.

[2] = test system: H22 liver subcutaneous transplanted tumor; experiment: Mouse model of H22 liver subcutaneous transplanted tumor; format: in vivo
Experimental: The method was as follows:
Experimental procedure: H22 hepatoma cell suspension was adjusted to 1×10^7/mL after dilution and counting with normal saline, and 0.2 mL per mouse was inoculated on the back of the mice. After 24 hours, the mice were weighed and administered drug at a dose of 0.1 mL/10 g once a day, wherein the mice in the solvent control group and the treatment groups were administered 0.9% sodium chloride solution and the compound of the present invention, respectively, for 14 days, and the mice in the CTX group were injected intraperitoneally for 14 days. The mice were weighed after 14 days. The animals were executed and the tumor blocks were removed and weighed separately. The tumor inhibition rate was calculated according to the following formula: tumor inhibition rate (%)=(1−average tumor weight in a treatment group/average tumor weight in the solvent control group)×100%.

Cn1c(C(=O)NCCC(=O)O)cc2ccccc21 [3-[(1-methyl-1H-indole-2-carbonyl)amino]propionic acid, reference compound]
LVFS ([1]; medium-dose 25 mg/kg gavage): 22.9±4.0%
LVEF ([1]; medium-dose 25 mg/kg gavage): 53.2±3.8%
lung coefficient ([1]; medium-dose 25 mg/kg): 5.48%±0.15%
tumor inhibition rate ([2]; 25 mg/kg once a day 14 days): 52.8%

CC(=O)OCCCNC(=O)c1c(C=O)c2ccccc2n1C [compound 1-1, propyl 3-[(3-formyl-1-methyl-1H-indole-2-carbonyl)amino]acetate]
LVFS ([1]; high-dose 50 mg/kg gavage): 30.7±2.2%
LVEF ([1]; high-dose 50 mg/kg gavage): 63.8±3.9%
lung coefficient ([1]; high-dose 50 mg/kg): 4.93%±0.12%
LVFS ([1]; medium-dose 25 mg/kg gavage): 24.5±2.6%
LVEF ([1]; medium-dose 25 mg/kg gavage): 58.7±4.3%
lung coefficient ([1]; medium-dose 25 mg/kg): 5.16%±0.19%
tumor inhibition rate ([2]; 25 mg/kg once a day 14 days): 60.5%
tumor inhibition rate ([2]; 50 mg/kg once a day 14 days): 69.4%
